Data set [1] concerns the target T1, dopamine transporter (DAT) (Rattus norvegicus, UniProt P23977).
T1 construct: synaptosomes prepared from brains using standard procedures; from tissue; host or cells: caudate synaptosomes of male Sprague-Dawley rats
The data set is described as follows: Dopamine Release Assay in rat synaptosomes. The settings on record: rat synaptosomes preloaded with 30 nM [3H]DA; eight concentrations from 10 μM; four-parameter log-logistic fit; estimated. The format is biochemical.

The conditions of data set [2]: humans, after 75 or 125 mg MDMA; standard deviation 1.3 hours; cited from earlier work.
The subject of data set [3] is DAT and SERT. To be noted: cited from earlier work.
The subject of data set [4] is DAT and NET. The settings on record: neurotransmitter release; cited from earlier work.
The target in data set [5] is Gamma-aminobutyric acid Receptor A (GABAA). Put plainly: Ion channel assay, blocker format. The settings on record: GABAA; Ion Channel; blocker; read-out: IC50 (μM) Antag./Blocker/Inhibitor. Type of data set: cell-based.
Data set [6] addresses CAV1.2 (Voltage-gated L-type calcium channel) (Homo sapiens, UniProt Q13936). The data set is described as follows: Ion channel assay, blocker format. The format is cell-based. To be noted: read-out: IC50 (μM) Antag./Blocker/Inhibitor.
Data set [7] has as its target Nicotinic acetylcholine Receptor α4 β2 (nAChR(a4/b2)) (Homo sapiens, UniProt P17787+P43681). The data set is described as follows: Ion channel assay, blocker format. The format is cell-based. The settings on record: nAChR(a4/b2); Ion Channel; blocker; read-out: IC50 (μM) Antag./Blocker/Inhibitor.

Counter-ions that a name gives are not always drawn.

In general, EC50 refers to the midpoint of the concentration-response curve.

T1 sequence (P23977 whole entry): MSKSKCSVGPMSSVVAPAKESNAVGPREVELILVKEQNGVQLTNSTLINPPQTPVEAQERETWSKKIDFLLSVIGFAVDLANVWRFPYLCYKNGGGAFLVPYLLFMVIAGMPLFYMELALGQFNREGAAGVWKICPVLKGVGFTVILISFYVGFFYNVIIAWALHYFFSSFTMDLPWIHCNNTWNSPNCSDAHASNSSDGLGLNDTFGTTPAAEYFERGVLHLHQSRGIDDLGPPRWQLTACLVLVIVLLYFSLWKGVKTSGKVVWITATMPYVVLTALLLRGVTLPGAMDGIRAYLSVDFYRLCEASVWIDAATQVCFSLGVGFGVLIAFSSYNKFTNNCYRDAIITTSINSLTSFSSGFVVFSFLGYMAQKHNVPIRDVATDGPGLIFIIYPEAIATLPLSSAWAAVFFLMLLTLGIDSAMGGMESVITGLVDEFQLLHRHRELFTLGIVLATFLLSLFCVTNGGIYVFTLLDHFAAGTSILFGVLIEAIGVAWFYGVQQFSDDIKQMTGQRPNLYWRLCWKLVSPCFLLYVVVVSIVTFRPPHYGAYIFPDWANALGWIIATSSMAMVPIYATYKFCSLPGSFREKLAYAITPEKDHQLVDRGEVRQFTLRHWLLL
Chain of Nicotinic acetylcholine Receptor α4 β2 (nAChR(a4/b2)) (P43681 29-627 limits assumed): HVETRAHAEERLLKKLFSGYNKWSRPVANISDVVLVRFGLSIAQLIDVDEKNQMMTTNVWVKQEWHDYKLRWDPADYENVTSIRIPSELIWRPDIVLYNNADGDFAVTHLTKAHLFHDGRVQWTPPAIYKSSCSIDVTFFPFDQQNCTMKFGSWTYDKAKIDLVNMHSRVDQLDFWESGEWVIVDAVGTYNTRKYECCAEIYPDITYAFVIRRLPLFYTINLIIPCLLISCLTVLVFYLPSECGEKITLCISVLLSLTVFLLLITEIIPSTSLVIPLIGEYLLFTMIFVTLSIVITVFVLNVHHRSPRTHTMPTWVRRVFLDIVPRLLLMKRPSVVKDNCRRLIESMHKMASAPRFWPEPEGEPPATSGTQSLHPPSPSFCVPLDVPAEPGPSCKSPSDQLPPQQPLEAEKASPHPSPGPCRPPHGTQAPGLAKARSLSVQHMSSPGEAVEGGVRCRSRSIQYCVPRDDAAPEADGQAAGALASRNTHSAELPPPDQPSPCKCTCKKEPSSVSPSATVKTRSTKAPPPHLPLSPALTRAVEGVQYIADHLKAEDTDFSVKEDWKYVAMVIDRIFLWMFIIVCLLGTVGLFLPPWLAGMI
Chain of Nicotinic acetylcholine Receptor α4 β2 (nAChR(a4/b2)) (P17787 26-502): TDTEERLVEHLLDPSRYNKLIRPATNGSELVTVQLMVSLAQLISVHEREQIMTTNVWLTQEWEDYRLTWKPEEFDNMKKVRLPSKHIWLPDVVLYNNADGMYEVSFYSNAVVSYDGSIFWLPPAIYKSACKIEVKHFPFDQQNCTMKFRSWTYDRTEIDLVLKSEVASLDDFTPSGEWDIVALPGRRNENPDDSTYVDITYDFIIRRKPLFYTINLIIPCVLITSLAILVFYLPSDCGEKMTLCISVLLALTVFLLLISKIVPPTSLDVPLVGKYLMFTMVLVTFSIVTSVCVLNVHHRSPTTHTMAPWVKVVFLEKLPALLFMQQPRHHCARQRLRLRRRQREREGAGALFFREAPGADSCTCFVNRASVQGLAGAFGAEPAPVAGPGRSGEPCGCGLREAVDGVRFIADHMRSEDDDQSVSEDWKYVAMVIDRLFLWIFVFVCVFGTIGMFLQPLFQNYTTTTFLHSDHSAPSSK

In the case of `CCC(Cc1ccn2ccccc12)NC` (stereo not shown) [Compound 25-14, 1-(indolizin-1-yl)-N-methylbutan-2-amine], the EC50 in data set [1] was 2710 nM. As to `CNC(C)Cc1ccc2c(c1)OCO2` (stereo not shown) [MDMA], in data set [2], the “duration of acute therapeutic effects” value was 4.2 h. Moreover, the “DAT/SERT IC50 ratio” value in data set [3] was 0.08.

For the compound `CNC(C)Cc1ccn2ccccc12` (stereo not shown) [Compound 26-5, 1-(indolizin-1-yl)-N-methylpropan-2-amine HCl salt], the EC50 in data set [1] was 61.9 nM.

Take `C[C@H](N)Cc1ccccc1` [d-amphetamine, dextroamphetamine]: in data set [4], the “DAT/NET EC50 ratio” value is reported as 0.9. For the compound Picrotoxin [reference compound], the IC50 in data set [5] was 2.78 µM. For the compound `CN[C@@H](C)Cc1ccccc1` [d-methamphetamine], the “DAT/NET EC50 ratio” value in data set [4] is 0.5. For the compound `COC(=O)C1=C(C)NC(C)=C(C(=O)OC(C)C)C1c1cccc2nonc12` (stereo not shown) [Isradipine, reference compound], in data set [6], the IC50 was 0.017 µM. As to “Dihydro-AY-erythroidine [reference compound]”, the IC50 in data set [7] was determined as 0.682 µM. Take `CCC(N)Cc1ccn2ccccc12` (stereo not shown) [Compound 27-1, 1-indolizin-1-ylbutan-2-amine HCl salt]: the 50% effective concentration (EC50) in data set [1] is 21800 nM.

(Values after patent publication US20250042900A1 (priority 2022, published 2025).)
